These are literature values, as cited in US9770413B2, “Amphiphilic dendron-coils, micelles thereof and uses” (THE BOARD OF TRUSTEES OF THE UNIVERSITY OF ILLINOIS, priority 2011, dated 2017).

The target of the series is folate receptors (FR).

In the case of `Nc1nc2ncc(CNc3ccc(C(=O)N[C@@H](CCC(=O)O)C(=O)O)cc3)nc2c(=O)[nH]1` [FA, folic acid], the Kd was approximately 0.1 nM.
